# Reference: patent US10500222B2, “Compositions and methods relating to treatment of infection” (Wayne State University, priority 2015, dated 2019)
# Entries after “also recorded” stand apart in the source; their conditions may differ.
# Columns and labels:
# Format in all cases: in vivo, C57BL/6 (B6) mice
# [1] = tested on: mRNA levels in P. aeruginosa KEI 1025 infected cornea; test: Real time RT-PCR of cornea, KEI 1025 infection
# Procedure: (§1) The left eyes of B6 mice (n=5/group/time) were injected with 5 μl of 2 μg/μl glycyrrhizin (GLY) (Sigma-Aldrich, St. Louis, Mo.) or PBS (control) subconjunctivally, one day before infection. Similar treatment was done using carbenoxolone (CBX) (Sigma-Aldrich, St. Louis, Mo.). All mice were injected intraperitoneally (IP) at 1 and 3 days p.i. with 100 μl of GLY (2 μg/μl) or CBX (1 μg/μl). PBS served as control for all these experiments. In a separate similar experiment mice were treated one day before infection with GLY subconjunctivally and injected intraperitoneally (i.p.) with GLY plus recombinant (r) HMGB1 (1 μg/100 μl) or GLY plus PBS. IP injections were similarly given at 1 and 3 days p.i. In an additional experiment, KEI 1025 infected B6 mice were treated with 5 μl of 2 μg/μl GLY subconjunctivally at 6 hours p.i. and injected intraperitoneally at 1 and 3 days p.i. with 100 μl of GLY (2 μg/μl).
# KEI 1025 or ATCC strain 19660 infected GLY or PBS treated mice were sacrificed at 5 days p.i. and the normal, contralateral (uninfected) and infected cornea was harvested. For each cornea, total RNA was isolated (RNA STAT-60™; Tel-Test, Friendswood, Tex.) according to the manufacturer's instructions. Upon spectrophotometric quantification at 260 nm, 1 μg of each RNA sample was reverse transcribed using Moloney-murine leukemia virus (M-MLV) reverse transcriptase (Invitrogen, Carlsbad, Calif.) to produce a cDNA template for the PCR reaction. cDNA products were diluted 1:25 with diethylpyrocarbonate (DEPC)-treated water. A 2 μl aliquot of diluted cDNA was used for the real-time RT-PCR reaction with Real-Time SYBR® Green/Fluorescein PCR Master Mix (Bio-Rad) and primer concentrations of 10 μM (total 10 μl reaction volume). After a pre-programmed hot start cycle (3 min at 95° C.), the parameters used for PCR amplification were: 15 sec at 95° C. and 60 sec at 60° C. with the cycles repeated 45 times. Optimal conditions for PCR amplification of cDNA were established using routine methods. mRNA levels of HMGB1, RAGE, IL-1β, TLR2, TLR4, CXCL2, TNF-α, NLR family pyrin domain containing 3 (NLRP3), NLR family CARD domain containing 4 (NLRC4), IL-12, TGF-β, IL-10, single Ig IL-1-related receptor (SIGIRR) and interleukin 1 receptor-like 1 (ST2) were tested by real-time RT-PCR (CFX Connect™ Real-Time PCR Detection System; Bio-Rad, Richmond, Calif.). The fold differences in gene expression were calculated after normalization to β-actin and expressed as the relative mRNA concentration+SEM.
# [2] = tested on: P. aeruginosa KEI 1025 infected cornea; test: Ocular response to bacterial infection (clinical score, slit lamp), KEI 1025 keratitis; conditions: subconj. 1 day before infection + IP 1 and 3 days p.i., vs PBS
# Source text: P. aeruginosa strains, KEI 1025, a non-cytotoxic clinical isolate strain expressing exoT and exoS, and not expressing exoU, described in Estrellas P S, Jr., et al., Curr Eye Res. 2000; 20:157-165 (obtained from Kresge Eye Institute, Detroit, Mich.), and a cytotoxic strain, 19660, expressing exoU, described in Finck-Barbancon V, et al., Mol Microbiol. 1997; 25:547-557; and Fleiszig S M, et al., Infect Immun. 1997; 65:579-586 (obtained from American Type Culture Collection, ATCC, Manassas, Va.), were grown in peptone tryptic soy broth (PTSB) medium in a rotary shaker water bath at 37° C. and 150 rpm for 18 h to an optical density (measured at 540 nm) between 1.3-1.8. Bacterial cultures were pelleted by centrifugation at 5,500 g for 10 min. Pellets were washed once with sterile saline, re-centrifuged, re-suspended and diluted in sterile saline. Anesthetized (using anhydrous ethyl ether) mice were placed beneath a stereoscopic microscope at 40× magnification. The left cornea was scarified with three 1-mm incisions using a sterile 25^5/8 gauge needle. The wounded corneal surface was topically treated with 5 μl containing 1×10^7 CFU/μl (KEI 1025) or 1×10^6 CFU/μl (ATCC strain 19660) of the P. aeruginosa suspension.
# An established corneal disease grading scale, described in detail in Hazlett L D, et al., Invest Ophthalmol Vis Sci. 1987; 28:1978-1985, was used to assign a clinical score value to each infected eye at 1, 3 and 5 days post infection (p.i.). Clinical scores were designated as: 0=clear or slight opacity, partially or fully covering the pupil; +1=slight opacity, fully covering the anterior segment; +2=dense opacity, partially or fully covering the pupil; +3=dense opacity, covering the entire anterior segment; and +4=corneal perforation or phthisis. Clinical scores were used to statistically compare disease severity and were accompanied by photographs using a slit lamp (5 days p.i.) to confirm and illustrate the response.
# as §1
# P. aeruginosa KEI 1025 = test: Quantification of viable bacteria (plate count), KEI 1025 infection; conditions: pretreatment subconj. + IP, vs PBS
# Procedure: as §1
# Mice were sacrificed at 3 and 5 days p.i. and KEI 1025 or ATCC strain 19660 infected corneas from GLY, CBX or PBS (or GLY+/−rHMGB1) treated B6 mice were harvested (n=5/group/time). Each cornea was homogenized in 1 ml of sterile saline (0.85% NaCl, pH 7.4) containing 0.25% BSA. A 100 μl of the corneal homogenate was serially diluted (1:10) in sterile saline containing 0.25% BSA. Selected dilutions were plated in triplicate on selective culture medium (Difco™ Pseudomonas Isolation Agar, BD Biosciences, Inc., Franklin Lakes, N.J.). Plates were incubated overnight at 37° C. and viable bacteria manually counted. Results are reported as log10 CFU/cornea±SEM.
# [3] = KEI 1025, pretreatment subconj. + IP, infected cornea 5 days p.i., vs PBS
structure (smiles),measurement,setting,value
"CC1(C)[C@@H](OC(=O)CCC(=O)O)CC[C@]2(C)[C@H]3C(=O)C=C4[C@@H]5C[C@@](C)(C(=O)O)CC[C@]5(C)CC[C@@]4(C)[C@]3(C)CC[C@@H]12 [CBX, carbenoxolone]",CXCL2 mRNA levels,[1]; [3],reduced
same,HMGB1 mRNA levels,[1]; [3],no difference
same,IL-1β mRNA levels,[1]; [3],significantly reduced
same,IL-12 mRNA levels,[1]; [3],only GLY reduced
same,NLRC4 mRNA levels,[1]; [3],only GLY reduced
same,NLRP3 mRNA levels,[1]; [3],reduced
same,SIGIRR mRNA levels,[1]; [3],increased modestly
same,TGF-β mRNA levels,[1]; [3],reduced
same,TLR2 mRNA levels,[1]; [3],did not differ from PBS controls
same,TLR4 mRNA,[1]; [3],reduced
same,TNF-α mRNA levels,[1]; [3],"reduced by both GLY and CBX, but only GLY (p<0.01) was significant"
same,mRNA levels of the other molecules tested,"[1]; normal (uninfected) corneas, among PBS, CBX, GLY groups",no differences
same,clinical scores,[2]; 3 days p.i.,statistically significant reduction in disease scores; also recorded: only reduced at 3 days
same,clinical scores,[2]; 5 days p.i.,not at 5 (p=0.2) days p.i.
same,"opacity, slit lamp photographs",[2]; 5 days p.i.,reduced opacity
same,bacterial load in the corneas (plate count),P. aeruginosa KEI 1025; 3 days p.i.,not at 3 days p.i.
same,bacterial load in the corneas (plate count),P. aeruginosa KEI 1025; 5 days p.i.,significantly reduced
